The values below come from US20180370940A1, “SALICYLIC ACID DERIVATIVE, METHOD FOR PREPARING SAME, AND COSMETIC COMPOSITION FOR WHITENING COMPRISING SAME” (AMOREPACIFIC CORPORATION, priority 2015, published 2018).

This experiment concerns the target Mushroom-derived tyrosinase. Briefly: Inhibitory effect on tyrosinase activity (mushroom tyrosinase, L-tyrosine substrate, absorbance at 490 nm). Particulars: for pIC50: mushroom tyrosinase, 1.5 mM L-tyrosine, pH 6.5, 37° C. for 20 minutes, absorbance at 490 nm, read-out: Inhibition of tyrosinase activity (IC50); for inhibitory effect on tyrosinase activity (in words): at a concentration of 200 μM or less. The format is biochemical. The protocol:
In order to investigate the tyrosinase activity inhibitory effect of the salicylic acid derivatives prepared in Examples 1 to 6, the following experiment was conducted. Mushroom-derived tyrosinase and tyrosine were purchased from Sigma Chemical. Each sample was treated with 150 microliters of 0.1 M phosphate buffer (pH 6.5), 8 microliters of mushroom tyrosinase (2,100 units/ml, 0.05 M phosphate buffer, pH 6.5) and 36 microliters of 1.5 mM L-tyrosine by concentration. After the enzymatic reaction was carried out at 37° C. for 20 minutes, the activity of tyrosinase was measured by measuring the absorbance at 490 nm using a microplate reader (Bio-Rad 3550, Richmond, Calif., U.S.A.). The inhibitory effect of tyrosinase of the salicylic acid derivatives prepared in Examples 1 to 6 was determined based on the following Equation (1). Tyrosinase inhibition ratio (%)=100−((Reaction absorbance of each sample/reaction absorbance of the control group)×100) [Equation 1] The concentration of each test substance which decreased the activity of tyrosinase by 50% was determined by the above Equation, and the obtained results are shown in Table 1.

Broadly, the pIC50 is the negative decadic logarithm of the IC50, by convention in mol/L.

pIC50: −log10 of the molar value.

Consider `COc1ccc(C(=O)OCc2cc(=O)c(O)co2)c(O)c1` [Compound of Example 5, 2-hydroxy-4-methoxy-benzoic acid 5-hydroxy-4-oxo-4H-pyran-2-ylmethyl ester], for which the pIC50 was 5.38. `COc1ccc(O)c(C(=O)OCc2cc(=O)c(O)co2)c1` [Compound of Example 6, 2-Hydroxy-5-methoxy-benzoic acid 5-hydroxy-4-oxo-4H-pyran-2-ylmethyl ester]: the pIC50 was 5.48. Same read-out and setting: next, `COc1cccc(C(=O)OCc2cc(=O)c(O)co2)c1O` [Compound of Example 4, 2-hydroxy-3-methoxy-benzoic acid 5-hydroxy-4-oxo-4H-pyran-2-ylmethyl ester]: 5.38. Same read-out and setting: next, `O=c1cc(CO)occ1O` [Kojic acid, reference compound]: 4.39. On the same count and under the same terms, to `Cc1ccc(O)c(C(=O)OCc2cc(=O)c(O)co2)c1` [Compound of Example 3, 2-hydroxy-5-methyl-benzoic acid 5-hydroxy-4-oxo-4H-pyran-2-ylmethyl ester] belongs 5.28. As for `COc1cccc(C(=O)O)c1O` [3-Methoxysalicylic acid, reference compound], the “inhibitory effect on tyrosinase activity (in words)” value is given as “do not exhibit the inhibitory effect” and the pIC50 is below 3.70.

As for `Cc1cccc(C(=O)OCc2cc(=O)c(O)co2)c1O` [Compound of Example 1, 2-hydroxy-3-methyl-benzoic acid 5-hydroxy-4-oxo-4H-pyran-2-ylmethyl ester], the pIC50 is 5.49. Still for that read-out and setting: to `Cc1ccc(C(=O)OCc2cc(=O)c(O)co2)c(O)c1` [Compound of Example 2, 2-hydroxy-4-methyl-benzoic acid 5-hydroxy-4-oxo-4H-pyran-2-ylmethyl ester] belongs 5.82.

For `Cc1cccc(C(=O)O)c1O` [3-Methylsalicylic acid, reference compound], the “inhibitory effect on tyrosinase activity (in words)” value is on record as “do not exhibit the inhibitory effect” and the pIC50 is below 3.70.
